Source: publication PMC8571282 (Nature Communications, 2021)
Values joined by “and” are separate entries in the source; they are usually repeats but may differ in a detail not shown here. Equal entries are not always repeated.

Legend:
[1] = in vitro; conditions: human, % cell viability, M6 HAE, 72 h
[2] = female, ferret, in vivo, iv
[3] = test system: HCT-8 cells; test: Cytotoxicity assay (PrestoBlue), HCT-8; conditions: HCT-8, 72 h
[4] = in vitro; conditions: human, % cell viability
[5] = test system: “F3” primary HAE cells; test: Cytotoxicity assay (PrestoBlue), “F3” HAE; conditions: F3 HAE, 72 h
[6] = in vitro; conditions: human, 72 h
[7] = in vitro; conditions: human
[8] = in vitro; conditions: female, human, % cell viability, DF2 HAE, 33.333 µM, 72 h
[9] = in vitro; conditions: human, % cell viability; remark: listed apart in the source
[10] = test system: HEp-2 cells; test: Cytotoxicity assay (PrestoBlue), HEp-2; conditions: 72 h
[11] = test system: “F2” primary HAE cells; test: Cytotoxicity assay (PrestoBlue), “F2” HAE; conditions: 72 h; for % cell viability: F2 HAE
[12] = test system: SARS-CoV-2-Nluc (WA1/2020-nano luciferase); test: microbe, parasite or virus in culture; assay type: cell-based
[13] = in vitro; conditions: hamster
[14] = in vitro; conditions: human, % cell viability, M2 HAE, 72 h
[15] = in vitro; conditions: African green monkey

CCC(CC)COC(=O)[C@H](C)N[P@](=O)(OC[C@H]1O[C@@](C#N)(c2ccc3c(N)ncnn23)[C@H](O)[C@@H]1O)Oc1ccccc1 [remdesivir]
viability at 100 µM ([1]; 100 µM): 89%
viability at 0.046 µM ([1]; male, 0.046 µM): 90%
viability at 1.235 µM ([1]; male, 1.235 µM): 87%
viability at 33.333 µM ([1]; male, 33.333 µM): 96%
lung GS-443902 [2]: 1.28 nmol/g
lung total nuc [2]: 2.96 nmol/g
CC50 [3]: 36.4 µM
viability at […] [4]: 89%
viability at 1.235 µM ([4]; HEp-2, 1.235 µM, 72 h): 83%
viability at 33.333 µM ([4]; HEp-2, 33.333 µM, 72 h): 64%
viability at 100 µM ([4]; HEp-2, 100 µM, 72 h): 31%
% cell viability ([5]; 0.046 µM): 76% and 79%
% cell viability ([5]; 33.333 µM): 88% and 89%
% cell viability ([5]; 100 µM): 52% and 54%
viability at 0.046 µM ([6]; female, % cell viability, F2 HAE, 0.046 µM): 81%
viability at 33.333 µM ([6]; female, % cell viability, F2 HAE, 33.333 µM): 72%
viability at 100 µM ([6]; % cell viability, F2 HAE, 100 µM): 46%
CC50 ([6]; CC50, “F2” HAE): 85.5 µM
viability at 0.046 µM ([7]; % cell viability, HCT-8, 0.046 µM, 72 h): 76%
viability at 33.333 µM ([7]; % cell viability, HCT-8, 33.333 µM, 72 h): 51%
viability at 100 µM ([7]; % cell viability, HCT-8, 100 µM, 72 h): 15%
CC50 ([7]; CC50, HCT-8, 72 h): 36.4 µM
viability at 33.333 µM [8]: 86%
viability at […] ([9]; female): 91%
viability at 0.046 µM ([9]; female, F3 HAE, 0.046 µM, 72 h): 75%
viability at 33.333 µM ([9]; female, F3 HAE, 33.333 µM, 72 h): 84%
viability at 100 µM ([9]; F3 HAE, 100 µM, 72 h): 51%
% cell viability ([10]; HEp-2, 0.046 µM, 0.046 µM): 45% and 47% and 73%
% cell viability ([10]; HEp-2, 1.235 µM, 1.235 µM): 86% and 94%
% cell viability ([10]; HEp-2, 3.704 µM, 3.704 µM): 96%
% cell viability ([10]; HEp-2, 33.333 µM, 33.333 µM): 51% and 66%
% cell viability ([10]; HEp-2, 100 µM, 100 µM): 24%
% cell viability ([11]; 0.046 µM): 85% and 82%
% cell viability ([11]; 33.333 µM): 77% and 71%
% cell viability ([11]; 100 µM): 47%
CC50 ([11]; “F2” HAE): 85.5 µM
A549-hACE2 SARS-CoV-2 Nluc (EC50 determination), normalized signal ([12]; Conc 0.005 µM, replicate values of the experiments): 78.71 and 115.29 and 114.83 and 141.39 and 91.95 and 93.98 and 92.17 and 82.76 and 114.48 and 78.49 and 78.52 and 118.54
EC50 ([12]; Severe acute respiratory syndrome coronavirus 2, WA1/2020-nano luciferase, A549-ACE2, mean ± SD): 0.08 µM
CC50 [13]: > 100 µM
viability at 1.235 µM ([13]; % cell viability, BHK-21, 1.235 µM, 72 h): 87%
viability at 3.704 µM ([13]; % cell viability, BHK-21, 3.704 µM, 72 h): 93%
viability at 100 µM ([14]; 100 µM): 56%
viability at 0.046 µM ([14]; male, 0.046 µM): 85%
CC50 [15]: > 100 µM
viability at […] ([15]; % cell viability): 79%
viability at 3.704 µM ([15]; % cell viability, VeroE6, 3.704 µM, 72 h): 92%
